PubChem BioAssay (NCI)
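The compound was tested at five concentrations on cells cultured in 96-well plates, with a 48-hour exposure period. Definition used: TGI = concentration required for complete inhibition of growth.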

How the values were obtained:
Test in all cases: growth of human tumour cells (NCI), 48 h
[1] = system: 786-0 renal
[2] = system: A498 renal
[3] = system: A549 NSCLC
[4] = system: ACHN renal
[5] = system: BT-549 breast
[6] = system: CAKI-1 renal
[7] = system: CCRF-CEM leukemia
[8] = system: COLO 205 colon
[9] = system: DU-145 prostate
[10] = system: EKVX NSCLC
[11] = system: HCC-2998 colon
[12] = system: HCT-116 colon
[13] = system: HCT-15 colon
[14] = system: HL-60(TB) leukemia
[15] = system: HOP-62 NSCLC
[16] = system: HOP-92 NSCLC
[17] = system: HS 578T breast
[18] = system: HT29 colon
[19] = system: IGROV1 ovarian
[20] = system: K-562 leukemia
[21] = system: KM12 colon
[22] = system: M14 melanoma
[23] = system: MALME-3M melanoma
[24] = system: MCF7 breast
[25] = system: MDA-MB-231 breast
[26] = system: MDA-MB-435
[27] = system: MDA-N
[28] = system: MOLT-4 leukemia
[29] = system: NCI-H226 lung
[30] = system: NCI-H23 lung
[31] = system: NCI-H460 lung
[32] = system: NCI-H522 lung
[33] = system: NCI/ADR-RES ovarian
[34] = system: OVCAR-3 ovarian
[35] = system: OVCAR-4 ovarian
[36] = system: OVCAR-5 ovarian
[37] = system: OVCAR-8 ovarian
[38] = system: PC-3 prostate
[39] = system: RPMI-8226 leukemia
[40] = system: RXF 393 renal
[41] = system: SF-268 CNS
[42] = system: SF-295 CNS
[43] = system: SF-539 CNS
[44] = system: SK-MEL-2 melanoma
[45] = system: SK-MEL-28 melanoma
[46] = system: SK-MEL-5 melanoma
[47] = system: SK-OV-3 ovarian
[48] = system: SN12C renal
[49] = system: SNB-19 CNS
[50] = system: SNB-75 CNS
[51] = system: SR leukemia
[52] = system: SW-620 colon
[53] = system: T-47D breast
[54] = system: TK-10 renal
[55] = system: U251 CNS
[56] = system: UACC-257 melanoma
[57] = system: UACC-62 melanoma
[58] = system: UO-31 renal
[59] = system: LOX IMVI melanoma

Question: Which TGI [1] does the source give for `CCOC(=O)C(C)c1nc2cc(N3CCOCC3)c(F)cc2[nH]c1=O` (stereo unspecified) here?
Answer: > 100 µM

Question: And the TGI [2]?
Answer: > 100 µM

Question: And the TGI [3]?
Answer: > 100 µM

Question: And the TGI [4]?
Answer: > 100 µM

Question: And the TGI [5]?
Answer: > 100 µM

Question: And the TGI [6]?
Answer: > 100 µM

Question: What about the TGI [7] of the same compound?
Answer: > 100 µM

Question: What about the TGI [8] of the same compound?
Answer: > 100 µM

Question: What about the TGI [9] of the same compound?
Answer: > 100 µM

Question: And the TGI [10]?
Answer: > 100 µM

Question: And the TGI [11]?
Answer: > 100 µM

Question: And the TGI [12]?
Answer: > 100 µM

Question: What about the TGI [13] of the same compound?
Answer: > 100 µM

Question: What about the TGI [14] of the same compound?
Answer: > 100 µM

Question: And the TGI [15]?
Answer: > 100 µM

Question: What about the TGI [16] of the same compound?
Answer: > 100 µM

Question: And the TGI [17]?
Answer: > 100 µM

Question: What about the TGI [18] of the same compound?
Answer: > 100 µM

Question: And the TGI [19]?
Answer: > 100 µM

Question: And the TGI [20]?
Answer: > 100 µM

Question: And the TGI [21]?
Answer: > 100 µM

Question: What about the TGI [22] of the same compound?
Answer: > 100 µM

Question: What about the TGI [23] of the same compound?
Answer: > 100 µM

Question: And the TGI [24]?
Answer: > 100 µM

Question: And the TGI [25]?
Answer: > 100 µM

Question: And the TGI [26]?
Answer: > 100 µM

Question: And the TGI [27]?
Answer: > 100 µM

Question: What about the TGI [28] of the same compound?
Answer: > 100 µM

Question: What about the TGI [29] of the same compound?
Answer: > 100 µM

Question: What about the TGI [30] of the same compound?
Answer: > 100 µM

Question: What about the TGI [31] of the same compound?
Answer: > 100 µM

Question: What about the TGI [32] of the same compound?
Answer: > 100 µM

Question: And the TGI [33]?
Answer: > 100 µM

Question: What about the TGI [34] of the same compound?
Answer: > 100 µM

Question: And the TGI [35]?
Answer: > 100 µM

Question: What about the TGI [36] of the same compound?
Answer: > 100 µM

Question: And the TGI [37]?
Answer: > 100 µM

Question: And the TGI [38]?
Answer: > 100 µM

Question: And the TGI [39]?
Answer: > 100 µM

Question: What about the TGI [40] of the same compound?
Answer: > 100 µM

Question: And the TGI [41]?
Answer: > 100 µM

Question: And the TGI [42]?
Answer: > 100 µM

Question: And the TGI [43]?
Answer: > 100 µM

Question: What about the TGI [44] of the same compound?
Answer: > 100 µM

Question: What about the TGI [45] of the same compound?
Answer: > 100 µM

Question: What about the TGI [46] of the same compound?
Answer: > 100 µM

Question: What about the TGI [47] of the same compound?
Answer: > 100 µM

Question: And the TGI [48]?
Answer: > 100 µM

Question: What about the TGI [49] of the same compound?
Answer: > 100 µM

Question: What about the TGI [50] of the same compound?
Answer: > 100 µM

Question: What about the TGI [51] of the same compound?
Answer: > 100 µM

Question: And the TGI [52]?
Answer: > 100 µM

Question: What about the TGI [53] of the same compound?
Answer: > 100 µM

Question: What about the TGI [54] of the same compound?
Answer: > 100 µM

Question: And the TGI [55]?
Answer: > 100 µM

Question: And the TGI [56]?
Answer: > 100 µM

Question: And the TGI [57]?
Answer: > 100 µM

Question: What about the TGI [58] of the same compound?
Answer: > 100 µM

Question: For `CC1(C)[C@@H]2CC[C@@]1(C)C1(SS1=O)C21Cc2ccccc2C1` (stereo partly specified), which TGI [1] is on record?
Answer: 31.3 µM

Question: And the TGI [2]?
Answer: 97.3 µM

Question: And the TGI [3]?
Answer: > 100 µM

Question: What about the TGI [4] of the same compound?
Answer: 45.5 µM

Question: What about the TGI [5] of the same compound?
Answer: 85.9 µM

Question: And the TGI [6]?
Answer: 45.6 µM

Question: And the TGI [7]?
Answer: 36.3 µM

Question: What about the TGI [8] of the same compound?
Answer: 99 µM

Question: What about the TGI [9] of the same compound?
Answer: 45.4 µM

Question: What about the TGI [10] of the same compound?
Answer: 73 µM

Question: And the TGI [11]?
Answer: 36.9 µM

Question: And the TGI [12]?
Answer: 28.5 µM

Question: What about the TGI [13] of the same compound?
Answer: 63.7 µM

Question: What about the TGI [14] of the same compound?
Answer: 42.5 µM

Question: What about the TGI [15] of the same compound?
Answer: > 100 µM

Question: What about the TGI [16] of the same compound?
Answer: 67.5 µM

Question: And the TGI [17]?
Answer: > 100 µM

Question: What about the TGI [18] of the same compound?
Answer: 40.9 µM

Question: What about the TGI [19] of the same compound?
Answer: 37.2 µM

Question: What about the TGI [20] of the same compound?
Answer: 51.6 µM

Question: What about the TGI [21] of the same compound?
Answer: > 100 µM

Question: And the TGI [59]?
Answer: 28.5 µM

Question: And the TGI [22]?
Answer: > 100 µM

Question: And the TGI [23]?
Answer: > 100 µM

Question: What about the TGI [24] of the same compound?
Answer: 63.9 µM

Question: What about the TGI [25] of the same compound?
Answer: 34.9 µM

Question: And the TGI [26]?
Answer: 99 µM

Question: What about the TGI [27] of the same compound?
Answer: 35.5 µM

Question: And the TGI [28]?
Answer: 58.4 µM

Question: What about the TGI [29] of the same compound?
Answer: > 100 µM

Question: And the TGI [30]?
Answer: > 100 µM

Question: What about the TGI [31] of the same compound?
Answer: 52.2 µM

Question: And the TGI [32]?
Answer: 30.8 µM

Question: What about the TGI [33] of the same compound?
Answer: 67.5 µM

Question: What about the TGI [34] of the same compound?
Answer: > 100 µM

Question: What about the TGI [35] of the same compound?
Answer: 32 µM

Question: What about the TGI [36] of the same compound?
Answer: 45.7 µM

Question: And the TGI [37]?
Answer: 31 µM

Question: And the TGI [38]?
Answer: 41.7 µM

Question: What about the TGI [39] of the same compound?
Answer: 50.5 µM

Question: And the TGI [40]?
Answer: 38.9 µM

Question: What about the TGI [41] of the same compound?
Answer: > 100 µM

Question: And the TGI [42]?
Answer: > 100 µM

Question: And the TGI [43]?
Answer: 72.3 µM

Question: And the TGI [44]?
Answer: 60.5 µM

Question: What about the TGI [45] of the same compound?
Answer: 54 µM

Question: And the TGI [47]?
Answer: > 100 µM

Question: What about the TGI [48] of the same compound?
Answer: 35.8 µM

Question: And the TGI [49]?
Answer: > 100 µM

Question: And the TGI [50]?
Answer: > 100 µM

Question: What about the TGI [51] of the same compound?
Answer: 54.5 µM

Question: And the TGI [52]?
Answer: 36.1 µM

Question: What about the TGI [53] of the same compound?
Answer: 70.3 µM

Question: And the TGI [54]?
Answer: 38.7 µM

Question: And the TGI [55]?
Answer: 84.5 µM

Question: And the TGI [56]?
Answer: 55.9 µM

Question: And the TGI [57]?
Answer: 70 µM

Question: What about the TGI [58] of the same compound?
Answer: 35.8 µM
